The subject of the first assay is IL-5 production. The experiment in a line: In vitro inhibition of IL-5 production in human blood (phytohemagglutinin-stimulated whole blood, ELISA).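 Note: values marked with an asterisk were tested at 10 µM and unmarked values at 1 µM.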 Format: cell-based. Particulars: test dose 1×10^−6 M, 48 hours. The procedure, abridged:
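Heparinised blood from healthy male donors, diluted threefold in RPMI 1640, preincubated 60 min at 37° C with compound (0.02% DMSO vehicle), then stimulated with 2 μg/mL phytohemagglutinin for 48 h. Supernatant IL-5 measured by ELISA; percentage inhibition at 1×10^−6 M or 1×10^−5 M.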
For the molecule `Cc1nc(-c2ccccc2)c(C(c2ccc(Cl)cc2)c2ccc(-n3ncc(=O)[nH]c3=O)cc2Cl)s1` (racemic) [Compound 134], the “% inh. (percentage inhibition of IL-5 production)” value amounted to 95%.

Regarding `Cc1nc(-c2ccccc2Cl)c(C(c2ccc(Cl)cc2)c2c(Cl)cc(-n3ncc(=O)[nH]c3=O)cc2Cl)s1` (racemic) [Compound 135], the “% inh. (percentage inhibition of IL-5 production)” value is listed as 88%.

Regarding `Cc1nc(-c2ccccc2)c(C(c2ccc(Cl)cc2)c2c(Cl)cc(-n3ncc(=O)[nH]c3=O)cc2Cl)s1` (racemic) [Compound 136], the “% inh. (percentage inhibition of IL-5 production)” value was determined as 93%.

Consider `Cc1nc(-c2ccccc2Cl)sc1C(c1ccc(Cl)cc1)c1c(Cl)cc(-n2ncc(=O)[nH]c2=O)cc1Cl` (racemic) [Compound 137], for which the “% inh. (percentage inhibition of IL-5 production)” value turned out to be 64%.

As for `Cc1nc(-c2ccccc2)sc1C(c1ccc(Cl)cc1)c1c(Cl)cc(-n2ncc(=O)[nH]c2=O)cc1Cl` (racemic) [Compound 138], the “% inh. (percentage inhibition of IL-5 production)” value came to 81%.

`Cc1nc(-c2ccccc2Cl)c(C(c2ccc(Cl)cc2)c2ccc(-n3ncc(=O)[nH]c3=O)cc2Cl)s1` (racemic) [Compound 139]: the “% inh. (percentage inhibition of IL-5 production)” value came to 60%.

On to `O=c1cnn(-c2ccc(C(c3ccc(Cl)cc3)c3sc(-c4ccccc4)nc3-c3ccccc3)c(Cl)c2)c(=O)[nH]1` (racemic) [Compound 140], for which the “% inh. (percentage inhibition of IL-5 production)” value came to 45%.

For `O=c1cnn(-c2ccc(C(c3ccc(Cl)cc3)c3cnc(-c4ccccc4)s3)c(Cl)c2)c(=O)[nH]1` (racemic) [Compound 141], the “% inh. (percentage inhibition of IL-5 production)” value is on record as 64%.

For `O=c1cnn(-c2cc(Cl)c(C(c3ccc(Cl)cc3)c3cnc(-c4ccccc4)s3)c(Cl)c2)c(=O)[nH]1` (racemic) [Compound 142], the “% inh. (percentage inhibition of IL-5 production)” value is 80%.

As to `Cc1nc(-c2cccc(F)c2)c(C(c2ccc(Cl)cc2)c2ccc(-n3ncc(=O)[nH]c3=O)cc2Cl)s1` (racemic) [Compound 143], the “% inh. (percentage inhibition of IL-5 production)” value was 81%.

Take `O=c1cnn(-c2ccc(C(c3ccc(Cl)cc3)c3sc(-c4ccccc4)nc3-c3ccccc3Cl)c(Cl)c2)c(=O)[nH]1` (racemic) [Compound 144]: the “% inh. (percentage inhibition of IL-5 production)” value was 40%.

In the case of `O=c1cnn(-c2cc(Cl)c(C(c3ccc(Cl)cc3)c3sc(-c4ccccc4)nc3-c3ccccc3Cl)c(Cl)c2)c(=O)[nH]1` (racemic) [Compound 145], the “% inh. (percentage inhibition of IL-5 production)” value is given as 37%.

For the molecule `Cc1nc(-c2ccccc2)c(C(c2ccc(Cl)cc2)c2ccc(-n3ncc(=O)[nH]c3=O)cc2)s1` (racemic) [Compound 146], the “% inh. (percentage inhibition of IL-5 production)” value is listed as 83%.

As to `O=c1cnn(-c2cc(Cl)c(C(c3ccc(Cl)cc3)c3sc(-c4ccccc4Cl)nc3-c3ccccc3Cl)c(Cl)c2)c(=O)[nH]1` (racemic) [Compound 147], the “% inh. (percentage inhibition of IL-5 production)” value came out at 50%.

In the case of `O=c1cnn(-c2ccc(C(c3ccc(Cl)cc3)c3scnc3-c3cccc(F)c3)c(Cl)c2)c(=O)[nH]1` (racemic) [Compound 148], the “% inh. (percentage inhibition of IL-5 production)” value was 79%.

Turning to `Cc1nc(-c2ccc(Cl)cc2)c(C(c2ccc(Cl)cc2)c2ccc(-n3ncc(=O)[nH]c3=O)cc2Cl)s1` (racemic) [Compound 149], the “% inh. (percentage inhibition of IL-5 production)” value came to 89%.

In the case of `O=c1cnn(-c2ccc(C(c3ccc(Cl)cc3)c3sc(-c4ccccc4Cl)nc3-c3ccccc3)c(Cl)c2)c(=O)[nH]1` (racemic) [Compound 150], the “% inh. (percentage inhibition of IL-5 production)” value is 48%.

Take `O=c1cnn(-c2ccc(C(c3ccc(Cl)cc3)c3sc(-c4ccccc4Cl)nc3-c3ccccc3Cl)c(Cl)c2)c(=O)[nH]1` (racemic) [Compound 151]: the “% inh. (percentage inhibition of IL-5 production)” value worked out at 17%.

As for `Cc1nc(-c2ccccc2F)c(C(c2ccc(Cl)cc2)c2c(Cl)cc(-n3ncc(=O)[nH]c3=O)cc2Cl)s1` (racemic) [Compound 152], the “% inh. (percentage inhibition of IL-5 production)” value came to 87%.

With `COc1cc(-n2ncc(=O)[nH]c2=O)ccc1C(c1ccc(Cl)cc1)c1sc(C)nc1-c1ccccc1` (racemic) [Compound 153], the “% inh. (percentage inhibition of IL-5 production)” value was determined as 72%.

In the case of `Cc1nc(-c2ccccc2Cl)sc1C(c1ccc(Cl)cc1)c1ccc(-n2ncc(=O)[nH]c2=O)cc1Cl` (racemic) [Compound 154], the “% inh. (percentage inhibition of IL-5 production)” value was 42%.

On to `CC(c1ccc(Cl)c(C(F)(F)F)c1)(c1nnc(-c2ccccc2)o1)c1ccc(-n2ncc(=O)[nH]c2=O)cc1Cl` (racemic) [Compound 155], for which the “% inh. (percentage inhibition of IL-5 production)” value is 80%.

`O=c1cnn(-c2cc(Cl)c(C(c3ccc(Cl)cc3)c3nnc(-c4ccccc4F)o3)c(Cl)c2)c(=O)[nH]1` (racemic) [Compound 156]: the “% inh. (percentage inhibition of IL-5 production)” value was determined as 91%.

For `O=c1cnn(-c2cc(Cl)c(C(c3ccc(Cl)cc3)c3nnc(-c4cccc(Cl)c4)o3)c(Cl)c2)c(=O)[nH]1` (racemic) [Compound 157], the “% inh. (percentage inhibition of IL-5 production)” value was 85%.

`O.O=c1cnn(-c2cc(Cl)c(C(c3ccc(Cl)cc3)c3nnc(-c4ccncc4)o3)c(Cl)c2)c(=O)[nH]1` (racemic) [Compound 158]: the “% inh. (percentage inhibition of IL-5 production)” value came to 92%.

As to `O=c1cnn(-c2cc(Cl)c(C(c3ccc(Cl)cc3)c3nnc(C4CCCCC4)o3)c(Cl)c2)c(=O)[nH]1` (racemic) [Compound 159], the “% inh. (percentage inhibition of IL-5 production)” value came to 87%.

For `O=c1cnn(-c2cc(Cl)c(C(c3ccc(Cl)cc3)c3nnc(-c4cccc(F)c4)o3)c(Cl)c2)c(=O)[nH]1` (racemic) [Compound 160], the “% inh. (percentage inhibition of IL-5 production)” value is 91%.

Turning to `O=c1cnn(-c2cc(Cl)c(C(c3ccc(Cl)cc3)c3nnc(-c4ccco4)o3)c(Cl)c2)c(=O)[nH]1` (racemic) [Compound 161], the “% inh. (percentage inhibition of IL-5 production)” value is recorded as 91%.

With `Cc1nnc(C(c2ccc(Cl)cc2)c2c(Cl)cc(-n3ncc(=O)[nH]c3=O)cc2Cl)o1` (racemic) [Compound 162], the “% inh. (percentage inhibition of IL-5 production)” value is on record as 63%.

In the case of `O.O=c1cnn(-c2cc(Cl)c(C(c3ccc(Cl)cc3)c3nnc(-c4ccccc4Cl)o3)c(Cl)c2)c(=O)[nH]1` (racemic) [Compound 163], the “% inh. (percentage inhibition of IL-5 production)” value is 90%.

As for `CCCc1nnc(C(c2ccc(Cl)cc2)c2c(Cl)cc(-n3ncc(=O)[nH]c3=O)cc2Cl)o1` (racemic) [Compound 164], the “% inh. (percentage inhibition of IL-5 production)” value stood at 84%.

On to `O=c1cnn(-c2cc(Cl)c(C(c3ccc(Cl)c(C(F)(F)F)c3)c3nnc(-c4ccccc4)o3)c(Cl)c2)c(=O)[nH]1` (racemic) [Compound 165], for which the “% inh. (percentage inhibition of IL-5 production)” value amounted to 80%.

As to `O=c1cnn(-c2cc(Cl)c(C(c3ccc(Cl)cc3)c3nnc(-c4cccs4)o3)c(Cl)c2)c(=O)[nH]1` (racemic) [Compound 166], the “% inh. (percentage inhibition of IL-5 production)” value is recorded as 87%.

Take `O=c1cnn(-c2cc(Cl)c(C(c3ccc(Cl)cc3)c3nnc(-c4ccc(Cl)cc4)o3)c(Cl)c2)c(=O)[nH]1` (racemic) [Compound 167]: the “% inh. (percentage inhibition of IL-5 production)” value was 82%.

`O=c1cnn(-c2cc(Cl)c(C(c3ccc(Cl)cc3)c3nnc(-c4ccc(Br)cc4)o3)c(Cl)c2)c(=O)[nH]1` (racemic) [Compound 168]: the “% inh. (percentage inhibition of IL-5 production)” value is 80%.

In the case of `O=c1cnn(-c2cc(Cl)c(C(c3ccc(Cl)cc3)c3nnc(-c4ccccn4)o3)c(Cl)c2)c(=O)[nH]1` (racemic) [Compound 169], the “% inh. (percentage inhibition of IL-5 production)” value was determined as 81%.

Turning to `COc1cccc(-c2nnc(C(c3ccc(Cl)cc3)c3c(Cl)cc(-n4ncc(=O)[nH]c4=O)cc3Cl)o2)c1` (racemic) [Compound 170], the “% inh. (percentage inhibition of IL-5 production)” value was found to be 62%.

As for `COc1ccccc1-c1nnc(C(c2ccc(Cl)cc2)c2c(Cl)cc(-n3ncc(=O)[nH]c3=O)cc2Cl)o1` (racemic) [Compound 171], the “% inh. (percentage inhibition of IL-5 production)” value is 59%.

For `O=c1cnn(-c2cc(Cl)c(C(c3ccc(Cl)cc3)c3nnc(CCc4ccccc4)o3)c(Cl)c2)c(=O)[nH]1` (racemic) [Compound 172], the “% inh. (percentage inhibition of IL-5 production)” value worked out at 17%.

Turning to `O=c1cnn(-c2cc(Cl)c(C(c3ccc(Cl)cc3)c3nnc(Cc4ccccc4)o3)c(Cl)c2)c(=O)[nH]1` (racemic) [Compound 173], the “% inh. (percentage inhibition of IL-5 production)” value stood at 44%.

In the case of `COc1ccccc1-c1nnc(C(c2ccc(Cl)cc2)c2c(Cl)cc(-n3ncc(=O)[nH]c3=O)cc2Cl)o1` (racemic) [Compound 174], the “% inh. (percentage inhibition of IL-5 production)” value was 83%.

Consider `O=c1cnn(-c2cc(Cl)c(C(c3ccc(Cl)cc3)c3nnc(COc4ccccc4Cl)o3)c(Cl)c2)c(=O)[nH]1` (racemic) [Compound 175], for which the “% inh. (percentage inhibition of IL-5 production)” value was 58%.

Take `CCOC(=O)Cc1nnc(C(c2ccc(Cl)cc2)c2c(Cl)cc(-n3ncc(=O)[nH]c3=O)cc2Cl)o1` (racemic) [Compound 176]: the “% inh. (percentage inhibition of IL-5 production)” value was found to be 3%.

In the case of `Cc1ccc(-c2nnc(C(c3ccc(Cl)cc3)c3c(Cl)cc(-n4ncc(=O)[nH]c4=O)cc3Cl)o2)cc1` (racemic) [Compound 177], the “% inh. (percentage inhibition of IL-5 production)” value was 69%.

On to `Cc1cccc(-c2nnc(C(c3ccc(Cl)cc3)c3c(Cl)cc(-n4ncc(=O)[nH]c4=O)cc3Cl)o2)c1` (racemic) [Compound 178], for which the “% inh. (percentage inhibition of IL-5 production)” value came out at 78%.

`N#CCc1nnc(C(c2ccc(Cl)cc2)c2c(Cl)cc(-n3ncc(=O)[nH]c3=O)cc2Cl)o1` (racemic) [Compound 179]: the “% inh. (percentage inhibition of IL-5 production)” value worked out at 21%.

The assay is the same for the next values; noted with them: test dose 1×10^−6 M, 48 hours, read-out: % inh. (percentage inhibition of IL-5 production).
Broadly, the inhibition is the drop in the measured response relative to a control, in per cent. In the case of `CC(c1ccc(Cl)cc1)(c1nc2ccccc2o1)c1ccc(-n2ncc(=O)[nH]c2=O)cc1Cl` (racemic) [Compound 132, (±)-2-[3-chloro-4-[1-(4-chlorophenyl)-1-(2-benzoxazolyl)ethyl]phenyl]-1,2,4-triazine-3,5(2H,4H)-dione], the inhibition at 1 µM turned out to be 55%.

In the case of `CC(C)COC(c1ccc(Cl)cc1)c1ccc(-n2ncc(=O)[nH]c2=O)cc1Cl` (racemic) [Compound 133, (±)-2-[3-chloro-4-[(4-chloro-phenyl)(2-methylpropoxy)methyl]phenyl]-1,2,4-triazine-3,5(2H,4H)-dione], the inhibition at 1 µM was 50%.

(Values after patent US6867207B2, “IL-5 inhibiting 6-azauracil derivatives” (Janssen Pharmaceutica N.V., priority 1997, dated 2005).)
